“Also recorded” adds a separate entry of the source.
Legend:
Type in all cases: in vivo, human
[1] = 24 week randomised placebo-controlled double-blind clinical trial: HbA1c; settings: for ΔHbA1c Week 24, Mean ± SD / ΔHbA1c Week 24, Median (range): change from baseline (Day 0) to Week 24; for HbA1c Week 24, Mean ± SD / HbA1c Week 24, Median (range): type 2 diabetes patients, methazolamide 40 mg b.i.d.
Procedure: (§1) The safety and efficacy of methazolamide (40 mg administered twice daily) as a potential treatment for type 2 diabetes were evaluated in a 24 week, randomised, placebo-controlled double-blind clinical trial. The primary efficacy endpoint for the clinical trial was a reduction in HbA1c (ΔHbA1c) from baseline with methazolamide, relative to placebo, after 24 weeks of treatment. Secondary efficacy endpoints included reduction in body weight and improvements in cardiovascular measures such as blood pressure. The primary safety measurement was the effect of methazolamide, compared to placebo, on venous blood gas parameters; a measure of acidosis.
(§2) The clinical trial initially enrolled type 2 diabetes patients who were not treated with any anti-diabetic agent prior to entry into the trial (NAIVE) The trial was expanded to include participants who had been treated with metformin for at least 3 months and were on a stable metformin dose for at least 8 weeks prior to entering the trial (MET). The metformin dose was not altered throughout the trial.
(§3) Participants randomized into the clinical trial were administered either daily doses of methazolamide (40 mg b.i.d.) or placebo for 24 weeks. Methazolamide was taken as 1×30 mg capsule and 1×10 mg capsule per dose at breakfast and dinner. Placebo (microcrystalline cellulose) was administered in identical presentation. After an initial randomization visit to the clinic (Day 0), participants returned to the clinic at weeks 1, 2, 4, 8, 12, 18 and 24 for physical examinations, laboratory analyses, body composition measures, evaluation of glycemic parameters (fasting blood glucose, fasting insulin, HbA1c) and measurement of venous blood gas analysis.
(§4) Mean changes in body weight over time are depicted in FIG. 1.

[2] = 24 week randomised placebo-controlled double-blind clinical trial: body weight; settings: for ΔBW Week 24, Mean ± SD / ΔBW Week 24, Median (range): change from baseline (Day 0) to Week 24; for body weight change over the study: metformin-treated patients who received placebo; for BW Week 24, Mean ± SD / BW Week 24, Median (range): type 2 diabetes patients
Procedure: as §1, §2, §3, §4
Thus an unexpected and selective effect of methazolamide on the metformin-treated patients was observed.

[3] = 24 week randomised placebo-controlled double-blind clinical trial: body mass index; settings: for ΔBMI Week 24, Mean ± SD / ΔBMI Week 24, Median (range): change from baseline (Day 0) to Week 24; for BMI Week 24, Mean ± SD / BMI Week 24, Median (range): type 2 diabetes patients
Procedure: as §1, §2, §3, §4

[4] = difference to the matching placebo group, Week 24

CN(C)C(=N)NC(=N)N [Placebo + Met, metformin]
ΔHbA1c Week 24, Mean ± SD [1]: −0.04 ± 0.71% | ΔHbA1c Week 24, Median (range) [1]: −0.2 (−0.9, +1.4) % | HbA1c Week 24, Mean ± SD [1]: 7.50 ± 0.84% | HbA1c Week 24, Median (range) [1]: 7.3 (6.6, 9.8) % | ΔBW Week 24, Mean ± SD [2]: -0.3 ± 1.7 kg | ΔBW Week 24, Median (range) [2]: −0.5 (−2.8, +3.9) kg | body weight change over the study ([2]; 24 weeks): largely stable body weight | body weight change over the study ([2]; 24 weeks, listed as metformin and placebo): did not significantly change | BW Week 24, Mean ± SD [2]: 90.3 ± 15.9 kg | BW Week 24, Median (range) [2]: 87.6 (68.5, 133.6) kg | ΔBMI Week 24, Mean ± SD [3]: −0.06 ± 0.58 kg/m^2 | ΔBMI Week 24, Median (range) [3]: −0.2 (−0.8, +1.5) kg/m^2 | BMI Week 24, Mean ± SD [3]: 29.7 ± 4.7 kg/m^2 | BMI Week 24, Median (range) [3]: 29.1 (23.6-39.5) kg/m^2

CC(=O)/N=c1/sc(S(N)(=O)=O)nn1C [methazolamide]
ΔHbA1c Week 24, Mean ± SD [1]: −0.26 ± 0.72% | ΔHbA1c Week 24, Median (range) [1]: −0.3 (−2.1, +0.8) % | ΔHbA1c Week 24, MTZ − Placebo [1, 4]: −0.1% | HbA1c Week 24, Mean ± SD [1]: 6.88 ± 0.63% | HbA1c Week 24, Median (range) [1]: 7.0 (6.1, 8.0) % | effect on body weight versus placebo ([2]; Naïve patients not using metformin, 24 weeks): no differences were observed; also recorded: No such additional effect | ΔBW Week 24, Mean ± SD [2]: -2.3 ± 2.4 kg | ΔBW Week 24, Median (range) [2]: −1.8 (−9.8, +1.3) kg | ΔBW Week 24, MTZ − Placebo [2, 4]: +0.8 kg | average body weight lost over the 24 week period ([2]; metformin-treated patients further treated with methazolamide): 2.2 kg | body weight lost as share of starting body weight ([2]; metformin-treated patients further treated with methazolamide, 24 weeks): 2% | BW Week 24, Mean ± SD [2]: 90.7 ± 14.0 kg | BW Week 24, Median (range) [2]: 95.3 (63.3, 106.0) kg | ΔBMI Week 24, Mean ± SD [3]: −0.77 ± 0.79 kg/m^2 | ΔBMI Week 24, Median (range) [3]: −0.6 (−3.1, +0.5) kg/m^2 | ΔBMI Week 24, MTZ − Placebo [3, 4]: +0.4 kg/m^2 | BMI Week 24, Mean ± SD [3]: 31.5 ± 5.1 kg/m^2 | BMI Week 24, Median (range) [3]: 32.0 (24.7-39.0) kg/m^2

Reference: patent US20150174108A1, “METHOD OF WEIGHT REDUCTION” (priority 2012, published 2015)
